Patent publication US11576859B2, “Gastric residence systems for sustained release of therapeutic agents and methods of use thereof” (Lyndra Therapeutics, Inc., priority 2015, dated 2023)
Values after ≈ are worked out from the molar mass of the structure shown. Blank lines part the entries; values can stand above or below the compound they belong to.

Tests used:
[1] = physchem; conditions: water, thermodynamic from solid
Text: First, various surfactants were screened for their ability to improve aripiprazole solubility in FaSSGF and water. Equilibrium solubility of aripiprazole in the presence of surfactants was estimated in water and FaSSGF by the procedure described in Example 50.

[2] = PCL/SGF partition coefficient; assay type: physicochemical; conditions: 5:1 PCL diol (MW 530):ethyl acetate versus FaSSGF
Protocol: Partitioning of active pharmaceutical ingredient (API) between the structural polymer, polycaprolactone (PCL), and fasted state simulated gastric fluid (FaSSGF) is of interest for predicting API release rate from PCL-based formulations. To measure the PCL-SGF partition coefficient of an API, a concentrated stock solution of API was added to a mixture of 1 mL FaSSGF and 1 mL of 5:1 PCL diol (MW 530):ethyl acetate. The sample was vortexed and centrifuged at 10000 rpm for 5 minutes. The SGF phase was analyzed by HPLC to measure drug concentration. The PCL phase was diluted in methanol prior to quantification on HPLC.

[3] = method not given; cited from earlier work
[4] = physchem; conditions: thermodynamic from solid
[5] = Aripiprazole stability versus processing temperature
[6] = Time dependent thermal processing stability of aripiprazole at 100 °C; conditions: for Visual Observation / Impurity % 0.86 RRT: extruded at 100 °C
[7] = Rosuvastatin forced degradation in solution and in polycaprolactone formulation; assay type: physicochemical
Protocol: SOLUTION CONDITIONS: For acid degradation studies, rosuvastatin was dissolved to 1 mg/mL in 0.1M HCl and heated for the specified time and temperature. For alkaline degradation, rosuvastatin was dissolved to 1 mg/mL in 0.1M NaOH and heated to 80° C. for 1 h. For oxidative degradation, rosuvastatin was dissolved to 1 mg/mL in 30% hydrogen peroxide and heated to 80° C. for 30 min. For stability over time, rosuvastatin was dissolved to 1 mg/mL in water at room temperature for 5 days. For thermal degradation studies in solution, rosuvastatin was dissolved to 1 mg/mL in dimethylsulfoxide and heated to the specified temperature for 2 h. In each case, samples of the solution were diluted in methanol and analyzed by LCMS to determine the ratio of intact drug to degraded drug.
POLYMER CONDITIONS: For thermal degradation studies in formulation, rosuvastatin was blended with PCL at a ratio of 25:75 drug:PCL and the blend was heated to the specified temperature for 2 h. The drug-polymer blend was then dissolved in dichloromethane and this solution was added to excess methanol to precipitate PCL. Samples of the methanol solution were then analyzed by LCMS to determine the ratio of intact drug to degraded drug.

[8] = as above; assay type: physicochemical; conditions: Heat: 1 mg/mL drug in DMSO, 1 h
[9] = oral, once daily; cited from earlier work
[10] = extruded at 90 °C, same formulation
[11] = extruded at 100 °C, same formulation
[12] = extruded at 120 °C, same formulation
[13] = extruded at 140 °C, same formulation
[14] = extruded at 160 °C, same formulation
[15] = extruded at 180 °C, same formulation

solubility [1]: ~0.456 µg/mL (≈ 1.02 µM)
LogP (PCL/SGF) [2]: 1.67
PCL/SGF Partition Coefficient [2]: 49
solubility ([4]; pH 1.06, simulated gastric fluid): 500 µg/mL (≈ 1120 µM)
solubility ([4]; pH 3, aqueous buffer): 120 µg/mL (≈ 268 µM)
solubility ([4]; pH 4.65, aqueous buffer): 110 µg/mL (≈ 245 µM)
Visual Observation ([5]; extruded at 90 °C, 10 min batch mixing 75 rpm, 20% Aripiprazole/10% Kolliphor P407/10% Eudragit EPO/80 K PCL formulation): White
% Impurity Total [5, 10]: <0.05%
% Impurity at RRT 0.64 [5, 10]: <0.05%
% Impurity Total [5, 11]: <0.05%
% Impurity at RRT 0.64 [5, 11]: <0.05%
Visual Observation [5, 11]: White
% Impurity Total [5, 12]: <0.05%
% Impurity at RRT 0.64 [5, 12]: <0.05%
Visual Observation [5, 12]: White
% Impurity Total [5, 13]: 0.14%
% Impurity at RRT 0.64 [5, 13]: <0.05%
% Impurity at RRT 0.86 [5, 13]: 0.14%
Visual Observation [5, 13]: Slight pink
% Impurity Total [5, 14]: 0.21%
% Impurity at RRT 0.22 [5, 14]: 0.08%
% Impurity at RRT 0.42 [5, 14]: 0.08%
% Impurity at RRT 0.64 [5, 14]: 0.05%
Visual Observation [5, 14]: Brown
% Impurity Total [5, 15]: 0.60%
% Impurity at RRT 0.22 [5, 15]: 0.28%
% Impurity at RRT 0.42 [5, 15]: 0.12%
% Impurity at RRT 0.64 [5, 15]: 0.07%
% Impurity at RRT 0.71 [5, 15]: <0.05%
% Impurity at RRT 0.81 [5, 15]: 0.05%
% Impurity at RRT 0.93 [5, 15]: 0.08%
Visual Observation [5, 15]: Brown
degradation at 100 °C at all the timepoints ([6]; 5 to 30 minutes extrusion, same formulation): no significant degradation
Visual Observation ([6]; 5 min, 75 rpm, 20% aripiprazole/10% Kolliphor P407/10% Eudragit EPO/80 K PCL formulation): White colored extrudate
Impurity % 0.86 RRT ([6]; 5 min, same formulation): 0.08%
Impurity % 0.86 RRT ([6]; 10 min, same formulation): 0.08%
Visual Observation ([6]; 10 min, same formulation): White colored extrudate
Impurity % 0.86 RRT ([6]; 15 min, same formulation): 0.08%
Visual Observation ([6]; 15 min, same formulation): White colored extrudate
Impurity % 0.86 RRT ([6]; 20 min, same formulation): 0.08%
Visual Observation ([6]; 20 min, same formulation): White colored extrudate
Impurity % 0.86 RRT ([6]; 30 min, same formulation): 0.08%
Visual Observation ([6]; 30 min, same formulation): White colored extrudate
Compound: O=C1CCc2ccc(OCCCCN3CCN(c4cccc(Cl)c4Cl)CC3)cc2N1 [Aripiprazole]
LogP (Octanol/water) [3]: 5.59

LogP (PCL/SGF) [2]: −0.56
PCL/SGF Partition Coefficient [2]: 0.28
Compound: CC12CC3CC(C)(C1)CC(N)(C3)C2 [Memantine]

Compound: Cc1nc2n(c(=O)c1CCN1CCC(c3noc4cc(F)ccc34)CC1)CCCC2 [Risperidone]
PCL/SGF Partition Coefficient [2]: 0.03

% Intact drug ([7]; Acid: 0.1N HCl, 37 C., 2 d): 66%
% Intact drug ([7]; Acid: 0.1N HCl, 37 C., overnight, 1 mg/mL): 87%
% Intact drug ([7]; Acid: 0.1N HCl, 50 C., 4 h): 93%
% Intact drug ([7]; Acid: 0.1N HCl, 50 C., overnight): 58%
% Intact drug ([7]; Acid: 0.1N HCl, 80 C., 1 h): ~100%
% Intact drug ([7]; Base: 0.1M NaOH, 80 C., 1 h): ~100%
% Intact drug ([7]; Heat: 1 mg/mL drug in DMSO, 100 C., 2 h): 86%
% Intact drug ([7]; Heat: 1 mg/mL drug in DMSO, 120 C., 2 h): 77%
% Intact drug ([7]; Oxidation: 30% H2O2, 80 C., 30 min): ~100%
% Intact drug ([7]; Polymer-blended: 25% drug in polycaprolactone, 100 C., 2 h): >95%
% Intact drug ([7]; Polymer-blended: 25% drug in polycaprolactone, 120 C., 2 h): >95%
% Intact drug ([7]; Time: 1 mg/mL drug in water, room temperature, 5 days): 62%
% Intact drug ([8]; 100 C.): 86%
% Intact drug ([8]; 120 C.): >95%
Compound: CC(C)c1nc(N(C)S(C)(=O)=O)nc(-c2ccc(F)cc2)c1/C=C/[C@@H](O)C[C@@H](O)CC(=O)[O-].CC(C)c1nc(N(C)S(C)(=O)=O)nc(-c2ccc(F)cc2)c1/C=C/[C@@H](O)C[C@@H](O)CC(=O)[O-].[Ca+2] [Rosuvastatin calcium]

acid stability in PCL formulation versus in solution ([7]; FIG. 20): protects the drug from acid degradation
Compound: CC(C)c1nc(N(C)S(C)(=O)=O)nc(-c2ccc(F)cc2)c1/C=C/[C@@H](O)C[C@@H](O)CC(=O)O [Rosuvastatin]
elimination half-life [9]: approximately 19 hours
thermal stability in PCL formulation versus in solution ([7]; FIG. 21): protects the drug from degradation at elevated temperatures

LogP (PCL/SGF) [2]: 0.27
PCL/SGF Partition Coefficient [2]: 1.88
Compound: Doxycycline Hyclate
LogP (Octanol/water) [3]: −1.9

Compound: Ivermectin
LogP (PCL/SGF) [2]: 2.60
PCL/SGF Partition Coefficient [2]: 398
LogP (Octanol/water) [3]: 4.1
